The test system of test [1] is differentiated PC12 cells exposed to MPP^+. Briefly: Intracellular humanin in MPP+-exposed differentiated PC12 cells, western blot. In kind it is cell-based, rat. As to conditions: HN treatment, MPP+ exposure. Here is the method:
For neuronal differentiation of PC12 cells, the cells were grown in DMEM containing 1.5% horse serum, 1.5% FBS, 1% P/S, and 100 ng/mL nerve growth factor (NGF, Thermo Fisher Scientific) every 2 days. PC12 cells were differentiated for 7 days and used for subsequent experiments.
Mouse brain tissue samples and cells were homogenized in radioimmunoprecipitation assay (RIPA) buffer (Cell Signaling, Danvers, MA, USA) in the presence of a protease and phosphatase inhibitor cocktail (Thermo Fisher Scientific). The samples were sonicated on ice, and the supernatant was collected after centrifugation at 4°C at 10,000 g for 5 min. The protein samples were loaded and separated using Tris-glycine SDS-PAGE. To detect the HN peptide, the proteins were separated into three layers of tricine SDS-PAGE, as previously described. The separated proteins were transferred to nitrocellulose membranes (GenDEPOT, Barker, TX, USA). The membranes were blocked for 0.5 h, followed by incubation with appropriate primary antibodies overnight at 4°C. The primary antibodies used were as follows: anti-tyrosine hydroxylase (Cat # P40101, Pel-Freez Biologicals), anti-HN (Cat # RA19000, Neuromics), anti-β-actin (Cat # GTX109639, GeneTex, Irvine, CA, USA), and anti-GAPDH (Cat # AM4300, Thermo Fisher Scientific). […] The results were analyzed using the ImageJ densitometry system. […]
On the technique in general: In western blotting, separated proteins are transferred to a membrane and probed.

For test [2], the system named is MPTP mouse model of PD. Briefly: MPTP mouse model of PD, intranasal HN. The note with it: intranasal HN 0.1 and 5 mg/kg. In kind it is in vivo. Here is the method:
A mouse model of PD was generated using the neurotoxin MPTP-HCl (Sigma-Aldrich, St. Louis, MO, USA), as previously described. Seven- to eight-week-old male C57BL/6J mice were injected with MPTP (20 mg/kg/day) for five consecutive days for the subacute delivery of MPTP. The mice in the control group received the same volume of phosphate buffer saline (PBS).
For intranasal HN treatment, the synthetic HN peptide was delivered according to a procedure reported by Capsoni et al. The synthetic HN peptide was diluted in ddH2O to a concentration of 0.1 and 5 mg/kg for mice (total volume of 40 μL) at 37 ℃ with mild stirring. The mice were held firmly in one hand in a supine position with their head at 90°. Synthetic HN was administered in the form of 5-μL drops over 20 min in alternating nostrils every 3 min. After administration, the heads of the mice were held in the same position to prevent loss of the applied solution from the nares.
To stain the mouse brain tissue samples, transcardial perfusion was performed using PBS and 4% paraformaldehyde in PBS. The brain and trigeminal ganglia were removed, post-fixed using 4% paraformaldehyde in PBS, and stored in a 30% sucrose solution at 4 ℃ until they sank. Coronal sections were prepared (thickness: 10 µm) using a sliding microtome. After blocking with 5% BSA, the samples were incubated with the appropriate primary antibody as mentioned above. After incubation with the primary antibodies, the tissue samples were incubated with Alexa Fluor 594- or 488-conjugated antibodies (Thermo Fisher Scientific) for immunofluorescence or with secondary biotinylated anti-rabbit IgG (H+L) (Vector Laboratories, Burlingame, CA, USA) for immunohistochemistry. […] Mitochondrial network morphology was further assessed using the FIJI/ImageJ software as described previously.
Mouse brain tissue samples and cells were homogenized in radioimmunoprecipitation assay (RIPA) buffer (Cell Signaling, Danvers, MA, USA) in the presence of a protease and phosphatase inhibitor cocktail (Thermo Fisher Scientific). […] The results were analyzed using the ImageJ densitometry system. […]

The test system of test [3] is SH-SY5Y cells. Briefly: Real-time qPCR of mitochondrial rRNA and humanin transcripts. The class given is cell-based, human. Here is the method:
For real-time qPCR, total RNA was extracted using TRIzol reagent (Thermo Fisher Scientific). cDNA was synthesized using a cDNA synthesis kit (Bioneer Corporation), according to the manufacturer's protocol. The mRNA levels were analyzed in a LightCycler 96 (Roche, Basel, Switzerland) using SYBR Green I master mix and SensiFAST™ SYBR® No-ROX Kit (Bioline, Paris, France). B2M (beta-2-microglobulin) gene expression was used to normalize gene expression data. The primer sequences used in this experiment are in Table S2.
(Quantitative PCR measures a nucleic acid by following its amplification.)

These results are taken from article PMC10283052, “Intranasal delivery of mitochondrial protein humanin rescues cell death and promotes mitochondrial function in Parkinson's disease” (Theranostics, 2023).

For the substance “humanin (MAPRGFSCLLLLTSEIDLPVKRRA; Humanin; UniProt Q8IVG9 1-24, looked up) [HN, mitochondria-derived peptide encoded by the mitochondrial genome, synthesized by Fmoc-based SPPS at GL Biochem]”, in test [1], the intracellular humanin result was “upregulated intracellular humanin”. For the same substance, in test [2] (MPTP 20 mg/kg/day for 5 days), the “motor function, pole test” value is given as “steady motor improvements in a dose-dependent manner”. The “TH expression, dopaminergic neurons of substantia nigra pars compacta” value in test [2] (dose-dependent, TH staining, stereology) is given as “significantly restored TH expression”. Moreover, the “TH protein in striatum lysates, western blot” value in test [2] (three independent blots) is recorded as “confirmed the impact of intranasal delivery of HN on protecting TH^+ dopaminergic neurons”. Besides, the “transcript levels of regions across mitochondrial rRNA and humanin” value is given as “significantly upregulated up to 24 h” in test [3] (up to 24 h after HN treatment, slightly declined over time) and “significant upregulation” in test [3] (within 3 h of HN treatment).
